Results taken from patent publication US12643954B2, “Anti-CD36 antibodies and their use to treat cancer” (ONA Therapeutics, S.L., priority 2020, dated 2026).

Assays:
Detroit 562 cells = assay: Detroit 562 orthotopic mouse model of oral cancer metastasis; assay type: in vivo; conditions: single agent; antibody 1 mg/kg i.p. daily, cisplatin 2 mg/kg twice weekly
Experimental: NOD scid gamma (NSG) (NOD.Cg-Prkdc^scidII2rg^tm1Wj1/SzJ) mice were purchased from Charles River and crossed in-house. All mice were housed under a regimen of 12h light/12h dark cycles and SPF conditions, and all procedures were evaluated and approved by the CEEA (Ethical Committee for Animal Experimentation) from the Government of Catalunya. SCC intra-tongue injection was performed as previously described (Oskarsson et al., 2014; Nieman et al., 2011). Briefly, mice were anesthetized by intraperitoneal injection with a mixture of 50 mg per kg of ketamine and 0.5 mg per kg of medetomidin, and SCC cells resuspended in 30 μl PBS were injected into each mouse tongue with a BD ultra-fine 6 mm needle. Mice were monitored for the luciferase bioluminescent signal immediately after injection (TO) and once weekly thereafter with a Xenogen IVIS Imaging System-100 (Caliper Life Sciences). Briefly, animals were injected by retro-orbital injection with 50 μl of D-luciferin (Promega) diluted in 1×PBS at 5 mg ml^−1. […] Data was quantified with the Living Image software version 4.4 (Caliper Life Sciences). Quantifications were calculated with unsaturated pixels. […]
Antibody treatments were administered via intraperitoneal (i.p.) injection daily at a dose of 1 mg/kg. […] Further, mouse body weight was measured twice weekly to update appropriate dosage amounts. […]

FaDu cells = assay: FaDu orthotopic mouse model of oral cancer metastasis; assay type: in vivo; conditions: single agent
Experimental: NOD scid gamma (NSG) (NOD.Cg-Prkdc^scidII2rg^tm1Wj1/SzJ) mice were purchased from Charles River and crossed in-house. All mice were housed under a regimen of 12h light/12h dark cycles and SPF conditions, and all procedures were evaluated and approved by the CEEA (Ethical Committee for Animal Experimentation) from the Government of Catalunya. SCC intra-tongue injection was performed as previously described (Oskarsson et al., 2014; Nieman et al., 2011). Briefly, mice were anesthetized by intraperitoneal injection with a mixture of 50 mg per kg of ketamine and 0.5 mg per kg of medetomidin, and SCC cells resuspended in 30 μl PBS were injected into each mouse tongue with a BD ultra-fine 6 mm needle. Mice were monitored for the luciferase bioluminescent signal immediately after injection (TO) and once weekly thereafter with a Xenogen IVIS Imaging System-100 (Caliper Life Sciences). Briefly, animals were injected by retro-orbital injection with 50 μl of D-luciferin (Promega) diluted in 1×PBS at 5 mg ml^−1. Continuous administration of isofluorane gas was provided to ensure anesthetizing animals during imaging. Data was quantified with the Living Image software version 4.4 (Caliper Life Sciences). Quantifications were calculated with unsaturated pixels. Color scale minimum and maximum values are shown in pictures.
Studies on the combination of the effects of the ONA-0-v1 anti-CD36 antibody, both with and without cisplatin, were performed in NSG mice (immuno-deficient). The studies included both male and female mice. All mice were inoculated with commercially available FaDu (ATCC) cancer cells, transduced with a retroviral vector expressing luciferase and the green fluorescent protein (Luc-GFP). FaDu cells were derived from a squamous cell carcinoma (i.e., from an oral cancer). Prior to inoculation, the FaDu cells were cultured in a humidified incubator at 37° C. with 5% CO2, and were grown in EMEM (LONZA) supplemented with 5 μg ml^−1 penicillin/streptomycin and 10% FBS (GIBCO).
For each mouse, 100,000 FaDu cells were inoculated via orthotopic injection.
Treatment of the inoculated mice began nine days after inoculation with the cancer cells. Inoculated mice were divided into four distinct treatment groups.
Antibody treatments were administered via intraperitoneal (i.p.) injection daily at a dose of 1 mg/kg. Cisplatin was administered twice weekly at a dose of 2 mg/kg (Groups 2 and 4). […] During the course of treatment, mice were observed once weekly using an in vivo imaging system (IVIS). Further, mouse body weight was measured twice weekly to update appropriate dosage amounts. At the end of the treatment period, the mice were sacrificed, and organs and tissues were collected for performance of immunohistochemistry analysis.

[1] = molecular target: T1, cells overexpressing human CD36 (Homo sapiens, UniProt P16671); assay: FACS binding to cells overexpressing human CD36; conditions: serial dilution up to 100 nM
T1 construct: expressed in transfected cells
T1 sequence (P16671 whole entry): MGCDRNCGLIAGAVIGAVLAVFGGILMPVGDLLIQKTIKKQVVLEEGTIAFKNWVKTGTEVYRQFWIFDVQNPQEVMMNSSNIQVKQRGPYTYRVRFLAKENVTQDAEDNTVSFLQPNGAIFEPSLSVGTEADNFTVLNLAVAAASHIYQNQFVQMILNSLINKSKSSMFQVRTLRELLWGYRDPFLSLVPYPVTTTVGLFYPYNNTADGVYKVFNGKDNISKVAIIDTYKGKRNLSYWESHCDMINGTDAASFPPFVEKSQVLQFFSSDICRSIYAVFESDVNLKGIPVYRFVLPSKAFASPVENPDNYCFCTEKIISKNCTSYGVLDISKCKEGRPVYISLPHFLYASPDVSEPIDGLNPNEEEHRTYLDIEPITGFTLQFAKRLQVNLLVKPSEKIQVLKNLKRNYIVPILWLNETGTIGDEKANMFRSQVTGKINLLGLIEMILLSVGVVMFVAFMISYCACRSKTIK
Experimental: For FACS analysis, cells were trypsinized, collected in a 15 mL tube and diluted in washing buffer (2% FBS in PBS). Cells were then centrifuged at 1500 rpm for 5 min at 4° C., supernatant was discarded, and cells were resuspended in fresh washing buffer. Anti-CD36 antibodies were either omitted (control wash buffer treatment) or serially diluted in washing buffer (dilution range up to 100 nM), and then added to the cells. Incubation was performed on ice for 1 hour. Cells were then centrifuged at 1500 rpm for 5 min at 4° C., supernatant was discarded, and cells were resuspended in fresh washing buffer. Finally, cells were incubated with a […] (BV421 Rat Anti-Mouse IgA, Becton Dickinson, reference 743293) diluted 1:100 in washing buffer, washed and analysed by FACS.

mouse CD36 = molecular target: T2, mouse CD36 (Mus musculus, UniProt Q08857); assay: ELISA binding to plate-coated mouse CD36; conditions: recombinant mouse CD36 coated plates
T2 construct: purchased Sino Biological 50422-M08H
T2 sequence (Q08857 30-439 limits assumed): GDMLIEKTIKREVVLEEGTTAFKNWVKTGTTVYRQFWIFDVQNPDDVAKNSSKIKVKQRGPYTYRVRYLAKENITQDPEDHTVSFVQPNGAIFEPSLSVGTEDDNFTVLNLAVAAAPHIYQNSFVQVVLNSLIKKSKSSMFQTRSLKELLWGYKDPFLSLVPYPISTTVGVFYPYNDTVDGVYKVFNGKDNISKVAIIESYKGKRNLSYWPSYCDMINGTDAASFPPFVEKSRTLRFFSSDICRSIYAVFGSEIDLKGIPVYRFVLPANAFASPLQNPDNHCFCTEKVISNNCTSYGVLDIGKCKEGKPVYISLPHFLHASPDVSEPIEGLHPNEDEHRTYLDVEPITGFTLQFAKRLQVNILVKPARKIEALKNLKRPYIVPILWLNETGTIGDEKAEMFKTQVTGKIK
Experimental: (§1) To perform ELISA assays, 96-well ELISA plates were coated over night with human CD36 (Sino Biological, reference 10752-H08H) or mouse CD36 (Sino Biological, reference 50422-M08H) recombinant proteins at a concentration of 0.25 mg/ml. After two washes with PBS, plates were blocked with 4% skimmed milk in PBS for 1 hour at 37° C. Blocking solution was discarded and plates were washed five times with 200 μl/well PBS-Tween20 (0.5%). Primary antibodies were either omitted (control blocking solution treatment) or mixed in blocking solution at several dilutions ranging from 0.01 nM to 0.5 μM. The primary antibody solutions were added to the wells and incubated over night at 4° C. After 5 washes with 200 ul/well of PBS-Tween20 (0.5%), plates were incubated for 1 hour at room temperature with a goat anti-mouse HRP-conjugated antibody (Abeam, reference ab97235) diluted 1:2000 in blocking solution. Plates were then washed 5 times with 200 μl/well of PBS-Tween20 (0.5%), incubated with 100 μl/well TMB and detected after 10 minutes, 30 minutes, or 60 minutes with a spectrophotometer at a wave length of 630 nm.

CD36 = CD36 (Homo sapiens, UniProt P16671); assay: ELISA binding to plate-coated human CD36; design: purchased Sino Biological 10752-H08H; conditions: recombinant human CD36 coated plates
Chain of CD36 (P16671 30-439 limits assumed): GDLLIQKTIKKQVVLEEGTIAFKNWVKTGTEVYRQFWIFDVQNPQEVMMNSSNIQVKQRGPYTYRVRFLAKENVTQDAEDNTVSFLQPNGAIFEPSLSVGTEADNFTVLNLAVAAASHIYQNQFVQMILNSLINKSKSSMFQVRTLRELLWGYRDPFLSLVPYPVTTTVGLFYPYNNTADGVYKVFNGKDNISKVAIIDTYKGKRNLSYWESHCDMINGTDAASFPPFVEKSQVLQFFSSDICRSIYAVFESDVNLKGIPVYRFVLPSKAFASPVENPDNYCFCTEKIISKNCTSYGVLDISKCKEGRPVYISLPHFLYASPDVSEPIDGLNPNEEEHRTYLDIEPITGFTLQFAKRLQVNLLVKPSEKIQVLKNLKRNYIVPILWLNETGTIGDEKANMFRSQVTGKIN
Experimental: as §1

`N.N.[Cl][Pt][Cl]` [cisplatin, reference compound] was tested, and the “size of lung metastases” value (Detroit 562 cells) was “did reduce the size”, the “mice in which metastasis into lymph nodes was prevented” value (FaDu cells; eight tested mice per group) was “one of the eight” and the “effect on primary tumor (IVIS imaging and H&E staining)” value (FaDu cells; antibody 1 mg/kg i.p. daily, cisplatin 2 mg/kg twice weekly) was “inhibited tumor growth”.

B1: 1G06: chimeric ONA-0-v1 IgG1 antibody; heavy chain SEQ ID NO: 64, light chain SEQ ID NO: 23 (antibody)
heavy: QVQLKQSGADLVRPGASVKLSCKASGYTFTDYYINWVKQRPGQGLEWIARIYPGSGNTYYNEKFKGKATLTAEKSSSTAYMQLSSLTSEDSAVYFCARGIGGGFGMDYWGQGTSVTVSSASTKGPSVFPLAPSSKSTSGGTAALGCLVKDYFPEPVTVSWNSGALTSGVHTFPAVLQSSGLYSLSSVVTVPSSSLGTQTYICNVNHKPSNTKVDKKVEPKSCDKTHTCPPCPAPESTRGPSVFLFPPKPKDTLMISRTPEVTCVVVDVSHEDPEVKFNWYVDGVEVHNAKTKPREEQYNSTYRVVSVLTVLHQDWLNGKEYKCKVSNKALPAPIEKTISKAKGQPREPQVYTLPPSRDELTKNQVSLTCLVKGFYPSDIAVEWESNGQPENNYKTTPPVLDSDGSFFLYSKLTVDKSRWQQGNVFSCSVMHEALHNHYTQKSLSLSPGK
light: SIVMTQTPKFLLVSAGDRITITCKASQSVSDDVAWYQQKPGQSPKLLIYYASNRYTGVPDRFTGSGYGTDFTFTISTVQAEDLAVYFCQQDYSSPLTFGAGTKLEIKRTVAAPSVFIFPPSDEQLKSGTASVVCLLNNFYPREAKVQWKVDNALQSGNSQESVTEQDSKDSTYSLSSTLTLSKADYEKHKVYACEVTHQGLSSPVTKSFNRGEC
For B1, the “binding to cells overexpressing human CD36 (FACS)” value [1] was “bound equivalently”.

B2: ONA-0-v2: murine IgA antibody; heavy chain SEQ ID NO: 5, light chain SEQ ID NO: 9 (antibody)
heavy: QVQLKQSGADLVRPGASVKLSCKASGYTFTDYYINWVKQRPGQGLEWIARIYPGSGNTYYNEKFKGKATLTAEKSSSTAYMQLSSLTSEDSAVYFCARGIGGGFGMDYWGQGTSVTVSSESARNPTIYPLTLPPVLCSDPVIIGCLIHDYFPFGTMNVTWGKSGKDITTVNFPPALASGGRYTMSSQLTLPAVECPEGESVKCSVQHDSNPVQELDVNCSPTPPPPITIPSCQPSLSLQRPALEDLLLGSDASITCTLNGLRNPEGAAFTWEPSTGKDAVQKKAAQNSCGCYSVSSVLPGCAERWNSGASFKCTVTHPESGTLTGTIAKVTVNTFPPQVHLLPPPSEELALNELLSLTCLVRAFNPKEVLVRWLHGNEELSPESYLVFEPLKEPGEGATTYLVTSVLRVSAETWKQGDQYSCMVGHEALPMNFTQKTIDRLSGKPTNVSVSVIMSEGDGICY
light: NIVMTQSPKSMSMSVGERVTLTCKASENVVTYVSWYQQKPEQSPKLLIYGASNRYTGVPDRFTGSGSATDFTLTISSVQAEDLADYHCGQGYSYPYTFGGGTKLEIKRADAAPTVSIFPPSSEQLTSGGASVVCFLNNFYPKDINVKWKIDGSERQNGVLNSWTDQDSKDSTYSMSSTLTLTKDEYERHNSYTCEATHKTSTSPIVKSFNRNEC
modifications: ONA-0-v1 heavy chain; ONA-0-v2 light chain
For B2, the “binding to mouse CD36 in ELISA” value (mouse CD36) was “did not interact” and the “binding to human CD36 in ELISA” value (CD36) was “did not interact”.
